The source of these data is ChEMBL document CHEMBL1201862, “PubChem BioAssay data set” (2004).

In one assay the target is Paired box protein Pax-8 (Homo sapiens, UniProt Q06710). Put plainly: inhibitors of PAX8-driven TPO luciferase reporter, dose response, RMG-I cells, cherry-pick (AID 687027).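 Further: luciferase reporter driven by Pax8 target thyroperoxidase promoter measured by SteadyGlo luminescence.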 The assay is classed as functional, cell-based. (In general: In a reporter assay the amount or activity of a reporter protein is the signal.)
Assay [1] can be described thus: IGROV1 ovarian cancer cell cytotoxicity, dose response, PAX8 inhibitor project, plate reader, dry powder samples (AID 743043). The conditions noted are these: IGROV-1. The assay is classed as functional, cell-based.
Assay [2] is described as follows: cytotoxicity in OVCAR8 ovarian cancer cells, dose response, PAX8 project, cell-based, plate reader, dry powder samples (AID 743197). The assay is classed as functional. The conditions noted are these: OVCAR-8.
A further assay has as its target Beta-galactosidase (Escherichia coli, UniProt Q8VNN2). The assay can be described thus: beta-galactosidase enzyme inhibitors and activators, dose response, artefact control for CCR6 antagonist project, biochemical, E. coli enzyme, set 3 (AID 504712). In kind it is functional.
A further assay concerns H9c2. The assay can be described thus: cells. The assay is classed as functional, cell-based. The conditions noted are these: Rattus norvegicus, H9c2, Myocardium.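 Further: confirmatory concentration-response retest of ultra-high-throughput screening hits for modulation of myocardial damage; cell death induced by hydrogen peroxide oxidative stress; compound pretreatment for 60 min then peroxide exposure for 2 h; potency is for protecting the cells against peroxide damage rather than for killing them.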
A short description of assay [3]: NIH:OVCAR-3 ovarian cancer cell cytotoxicity, dose response, PAX8 inhibitor project, plate reader, dry powder samples (AID 743044). In kind it is functional, cell-based.
Assay [4] can be described thus: cytotoxicity in HPDE-C7 cells, cell-based, fluorescence, HTS (AID 430). In kind it is functional. The following applies: Homo sapiens.
The nature of assay [5]: cytotoxicity in KRAS-transformed pancreatic duct cells, primary screen, cell-based, fluorescence, HTS (AID 431).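 Further: cell line used: HPDE-C7K.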 The assay is classed as functional. The following applies: Homo sapiens.
Assay [6] is described as follows: Luminescence Cell-Based Dose Retest to Confirm Inhibitors of Cancer Stem Cells. [Related pubchem assays (depositor defined):AID2717, AID2721]. The assay is classed as functional. The following applies: Homo sapiens.
Assay [7] concerns the target T1, Microphthalmia-associated transcription factor (Homo sapiens, UniProt O75030).
T1 sequence (O75030 whole entry): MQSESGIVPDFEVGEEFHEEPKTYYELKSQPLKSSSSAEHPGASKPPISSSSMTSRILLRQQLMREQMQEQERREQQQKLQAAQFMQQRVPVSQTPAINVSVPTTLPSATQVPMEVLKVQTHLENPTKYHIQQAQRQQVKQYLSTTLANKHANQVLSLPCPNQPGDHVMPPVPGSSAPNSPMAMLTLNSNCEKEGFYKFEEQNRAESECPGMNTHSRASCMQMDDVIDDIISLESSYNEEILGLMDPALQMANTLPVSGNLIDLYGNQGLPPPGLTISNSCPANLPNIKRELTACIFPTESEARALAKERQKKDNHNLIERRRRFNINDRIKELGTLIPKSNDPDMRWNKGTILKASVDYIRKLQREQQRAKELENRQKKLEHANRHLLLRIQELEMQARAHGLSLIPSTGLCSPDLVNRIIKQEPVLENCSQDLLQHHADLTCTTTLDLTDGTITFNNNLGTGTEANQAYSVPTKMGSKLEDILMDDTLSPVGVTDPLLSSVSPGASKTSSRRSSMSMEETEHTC
The assay can be described thus: TRPM1 promoter luciferase signal decrease, dose response, MITF inhibitor project, cell-based, SK-MEL-5, cherry-picked, set 3 (AID 493073).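 Further: SK-MEL-5 melanoma cells with luciferase driven by the MITF target TRPM1 promoter.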 In kind it is functional.

In another assay the target is Prothrombin (Homo sapiens, UniProt P00734). The assay can be described thus: Thrombin 1536 HTS Dose Response Confirmation. [Related pubchem assays: 1046 (Thrombin 1536 HTS; hits were confirmed in this assay)]. In kind it is functional.
A further assay concerns HEK293. Put plainly: inhibitors of LMP1-driven NF-kB reporter, dose response, cell-based, HEK293, luciferase, cherry-pick (AID 588343). The assay is classed as functional. The conditions noted are these: Homo sapiens.
In another assay the target is Large T antigen (Simian virus 40, UniProt P03070). In kind it is functional, Betapolyomavirus macacae.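 Further: Confirmatory-stage PubChem screen for compounds that inhibit SV40 T antigen.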
The nature of assay [8]: inhibitors of intracellular T. cruzi replication, confirmation, NIH3T3 host cells, beta-gal luminescence (AID 2044).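 Further: intracellular parasites grown in NIH/3T3 mouse fibroblasts as host cells; luminescent beta-galactosidase reporter signal from transgenic T. cruzi replicating inside host cells; inhibitors lower the luminescence signal.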 The assay is classed as functional, cell-based.
Assay [9] can be described thus: cytotoxicity toward NIH3T3 fibroblasts, dose response, counter-screen, cell-based, ATP luminescence, mouse fibroblasts (AID 2010).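 Further: cells exposed to compound for about 90 hours before reading.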 In kind it is functional.
Assay [10] in a line: HEp-2 cell cytotoxicity, dose response, cytotoxicity control for RSV inhibitor project, HTS (AID 2410). In kind it is functional. The conditions noted are these: human respiratory syncytial virus.
For another assay, the system named is Vero. The assay can be described thus: cells. In kind it is functional, cell-based. The conditions noted are these: Chlorocebus sabaeus.
Another assay has as its target T2, Estrogen receptor (Homo sapiens, UniProt P03372).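 Further: potency for inhibiting coactivator peptide recruitment to the receptor.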
T2 sequence (P03372 whole entry): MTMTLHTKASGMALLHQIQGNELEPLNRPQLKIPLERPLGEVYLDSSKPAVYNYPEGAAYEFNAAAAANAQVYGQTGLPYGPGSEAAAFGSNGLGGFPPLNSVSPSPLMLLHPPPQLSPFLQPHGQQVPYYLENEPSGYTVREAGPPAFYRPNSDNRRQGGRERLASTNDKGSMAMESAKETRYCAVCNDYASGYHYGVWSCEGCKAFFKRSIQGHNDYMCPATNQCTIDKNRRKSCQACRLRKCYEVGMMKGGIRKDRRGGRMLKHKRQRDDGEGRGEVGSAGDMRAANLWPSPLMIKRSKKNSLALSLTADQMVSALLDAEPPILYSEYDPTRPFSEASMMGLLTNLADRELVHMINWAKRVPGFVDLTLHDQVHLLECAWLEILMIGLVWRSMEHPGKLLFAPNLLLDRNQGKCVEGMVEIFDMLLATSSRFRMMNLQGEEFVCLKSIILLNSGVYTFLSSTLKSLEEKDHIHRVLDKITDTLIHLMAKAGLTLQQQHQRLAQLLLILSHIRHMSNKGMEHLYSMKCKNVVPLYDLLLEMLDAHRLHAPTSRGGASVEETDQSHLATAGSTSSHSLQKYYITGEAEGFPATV

Assay [11] has as its target T3, Ubiquitin-conjugating enzyme E2 N (Homo sapiens, UniProt P61088).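 Further: Dose-response confirmation in a TR-FRET assay detecting UBC13-driven polyubiquitin chain formation, inhibition measured.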
T3 sequence (P61088 whole entry): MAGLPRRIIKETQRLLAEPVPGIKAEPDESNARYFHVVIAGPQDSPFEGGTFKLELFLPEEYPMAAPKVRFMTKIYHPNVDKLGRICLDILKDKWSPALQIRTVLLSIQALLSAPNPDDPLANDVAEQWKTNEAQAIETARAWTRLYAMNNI
The assay is classed as functional.

In another assay the target is T4, Bcl-2-related protein A1 (Mus musculus, UniProt Q07440).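 Further: confirmatory dose–response counterscreen on Bfl-1, used to check hits from a UBC13 polyubiquitin inhibitor campaign.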
T4 sequence (Q07440 whole entry): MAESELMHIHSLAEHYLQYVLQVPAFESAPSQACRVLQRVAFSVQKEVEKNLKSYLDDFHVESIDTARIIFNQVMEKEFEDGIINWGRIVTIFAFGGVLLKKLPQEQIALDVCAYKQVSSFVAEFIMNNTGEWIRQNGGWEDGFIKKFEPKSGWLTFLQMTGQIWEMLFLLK
In kind it is functional.

The target of assay [12] is T5, Heat shock factor protein 1 (Mus musculus, UniProt P38532).
T5 sequence (P38532 whole entry): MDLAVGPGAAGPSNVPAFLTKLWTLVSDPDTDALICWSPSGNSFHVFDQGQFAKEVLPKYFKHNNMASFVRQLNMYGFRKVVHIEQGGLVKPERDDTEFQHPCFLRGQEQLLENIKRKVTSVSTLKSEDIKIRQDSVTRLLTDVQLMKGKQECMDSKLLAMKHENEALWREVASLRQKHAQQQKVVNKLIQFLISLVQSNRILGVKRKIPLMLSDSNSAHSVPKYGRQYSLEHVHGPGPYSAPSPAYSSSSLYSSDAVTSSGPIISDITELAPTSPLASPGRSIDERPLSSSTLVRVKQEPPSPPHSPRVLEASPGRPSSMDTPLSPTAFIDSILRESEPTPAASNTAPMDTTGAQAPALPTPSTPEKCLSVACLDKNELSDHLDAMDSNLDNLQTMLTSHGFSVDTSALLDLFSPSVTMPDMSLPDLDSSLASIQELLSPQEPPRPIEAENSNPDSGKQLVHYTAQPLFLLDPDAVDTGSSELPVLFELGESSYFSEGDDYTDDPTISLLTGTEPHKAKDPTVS
Put plainly: HSF1 potentiators in luciferase reporter cells, confirmation, cell-based, NIH3T3, luminescence, dose retest (AID 435004).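 Further: stress induced by proteasome inhibitor MG132 added 30 min after compound; luciferase reporter driven by HSF1 response element in NIH3T3 cells; actives raise luminescence as potentiators of the MG132 stress response.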 In kind it is functional.

Assay [13] is described as follows: THP-1 cell cytotoxicity, dose response, cytotoxicity control for Vif-APOBEC3G degradation inhibitor project, THP-1 cells (AID 1117359). The conditions noted are these: Human immunodeficiency virus 1, THP-1. In kind it is functional.

The structures appear in SMILES notation. The source made the active and inactive calls.

By AC50 is commonly meant the concentration giving half of the maximal activity seen. Broadly, the IC50 is the concentration needed to halve the response being measured. One may read the EC50 as the concentration that produces a half-maximal response. As a reminder, the CC50 is the concentration at which the toxic effect on the cells reaches its halfway point.

Sequence of Paired box protein Pax-8 (Q06710 whole entry): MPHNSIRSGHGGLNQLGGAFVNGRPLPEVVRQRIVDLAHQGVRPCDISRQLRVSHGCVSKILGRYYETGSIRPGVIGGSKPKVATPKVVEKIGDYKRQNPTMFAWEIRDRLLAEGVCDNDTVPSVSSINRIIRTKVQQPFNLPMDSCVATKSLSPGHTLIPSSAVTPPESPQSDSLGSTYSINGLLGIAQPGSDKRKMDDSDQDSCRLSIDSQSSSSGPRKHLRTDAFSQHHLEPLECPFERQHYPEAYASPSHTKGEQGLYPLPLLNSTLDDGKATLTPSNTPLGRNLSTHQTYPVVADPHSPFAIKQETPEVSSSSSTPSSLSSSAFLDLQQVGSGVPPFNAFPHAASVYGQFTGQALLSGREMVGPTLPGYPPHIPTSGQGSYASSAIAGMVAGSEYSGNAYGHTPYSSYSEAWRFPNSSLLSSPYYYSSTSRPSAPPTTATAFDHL
Sequence of Beta-galactosidase (Q8VNN2 whole entry): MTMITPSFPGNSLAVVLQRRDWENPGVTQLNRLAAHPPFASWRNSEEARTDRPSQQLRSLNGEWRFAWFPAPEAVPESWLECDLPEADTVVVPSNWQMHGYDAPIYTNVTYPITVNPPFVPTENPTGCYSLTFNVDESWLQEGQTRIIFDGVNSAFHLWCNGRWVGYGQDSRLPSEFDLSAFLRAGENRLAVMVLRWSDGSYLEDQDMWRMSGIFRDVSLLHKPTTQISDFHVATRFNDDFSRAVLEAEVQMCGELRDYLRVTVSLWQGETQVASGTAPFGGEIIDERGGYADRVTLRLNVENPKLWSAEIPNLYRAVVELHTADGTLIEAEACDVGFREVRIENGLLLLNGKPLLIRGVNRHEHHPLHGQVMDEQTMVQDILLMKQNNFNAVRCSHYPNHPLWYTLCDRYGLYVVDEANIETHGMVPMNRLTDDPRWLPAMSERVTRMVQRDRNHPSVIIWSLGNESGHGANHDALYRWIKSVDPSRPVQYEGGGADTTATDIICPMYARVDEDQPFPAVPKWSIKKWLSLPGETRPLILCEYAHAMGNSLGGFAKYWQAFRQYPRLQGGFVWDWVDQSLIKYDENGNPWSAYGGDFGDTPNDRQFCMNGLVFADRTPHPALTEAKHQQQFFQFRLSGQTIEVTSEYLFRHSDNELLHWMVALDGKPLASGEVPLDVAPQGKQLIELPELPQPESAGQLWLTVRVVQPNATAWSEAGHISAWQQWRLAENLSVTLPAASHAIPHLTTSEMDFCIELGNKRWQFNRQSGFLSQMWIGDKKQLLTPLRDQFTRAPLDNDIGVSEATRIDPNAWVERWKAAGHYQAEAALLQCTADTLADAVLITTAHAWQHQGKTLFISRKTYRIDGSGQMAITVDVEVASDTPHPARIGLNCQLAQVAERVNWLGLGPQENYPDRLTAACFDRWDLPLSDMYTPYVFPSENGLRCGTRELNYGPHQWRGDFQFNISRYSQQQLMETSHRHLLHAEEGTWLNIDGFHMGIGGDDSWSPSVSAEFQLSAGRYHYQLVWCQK
Sequence of Large T antigen (P03070 whole entry): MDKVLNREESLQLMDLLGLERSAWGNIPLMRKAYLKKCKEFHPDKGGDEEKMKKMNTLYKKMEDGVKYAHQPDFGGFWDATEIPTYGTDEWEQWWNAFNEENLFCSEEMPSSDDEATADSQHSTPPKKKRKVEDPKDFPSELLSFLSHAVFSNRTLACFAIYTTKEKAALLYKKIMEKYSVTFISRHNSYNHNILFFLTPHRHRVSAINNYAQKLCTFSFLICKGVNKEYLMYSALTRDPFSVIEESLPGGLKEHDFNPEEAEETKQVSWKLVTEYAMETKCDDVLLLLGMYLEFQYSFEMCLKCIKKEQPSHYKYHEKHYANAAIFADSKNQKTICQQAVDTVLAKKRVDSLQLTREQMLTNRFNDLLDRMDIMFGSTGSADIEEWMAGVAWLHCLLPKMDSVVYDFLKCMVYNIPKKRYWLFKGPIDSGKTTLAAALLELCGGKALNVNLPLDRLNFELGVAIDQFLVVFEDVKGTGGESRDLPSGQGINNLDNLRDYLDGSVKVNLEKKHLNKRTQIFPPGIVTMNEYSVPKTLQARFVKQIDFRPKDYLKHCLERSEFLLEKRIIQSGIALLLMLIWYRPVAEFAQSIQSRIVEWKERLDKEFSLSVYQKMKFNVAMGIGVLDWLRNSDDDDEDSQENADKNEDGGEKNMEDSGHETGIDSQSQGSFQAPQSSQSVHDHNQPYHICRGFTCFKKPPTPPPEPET

Turning to `O=C(C[C@H]1CC[C@@H]2[C@H](COC[C@H](O)CN2S(=O)(=O)c2cccc(F)c2)O1)Nc1ccc(-c2ccccc2)cc1`, the AC50 on Paired box protein Pax-8 is 17.2 µM (active); in assay [1] it was 59.4 µM (active); in assay [2] it was 42.6 µM (active).

`COc1cccc(-c2nnc(NC(=O)c3ccc(Cl)s3)o2)c1`: the results for the IC50 on Beta-galactosidase and in the assay with H9c2 were > 66.6 µM (inactive) and > 79 µM (inactive), respectively.

Regarding `C[C@H](CO)N1C[C@H](C)[C@@H](CN(C)Cc2ccc(Oc3ccccc3)cc2)Oc2ccc(NS(=O)(=O)c3ccc(Cl)cc3)cc2CC1=O`, the concentration at half-maximal activity (AC50) on Paired box protein Pax-8 is 7.43 µM (active); in [3], 68.7 µM (active); in [1] it was 67.8 µM (active); in [2], 62.6 µM (active).

Regarding `CCOC(=O)c1c(C)oc2c(F)c(F)c(F)c(F)c2c1=O`, the EC50 in assay [4] is 1.55 µM (active); in [5], 1.49 µM (active). Besides, the AC50 in assay [6] was 1.26 µM (active); in [7] it was 2.32 µM (active).

As for `CSc1nc2cc3c(cc2n1C(=O)c1ccc(C)cc1)OCCO3`, the IC50 on Prothrombin was 0.556 µM (active). The AC50 in the assay with HEK293 is > 350 µM (inactive).

`CC(=O)CC1OC(O)=C(Br)/C1=N/Cc1ccccc1` (configuration not stated): the 50% effective concentration (EC50) in [4] was 7.33 µM (active); in [8] it was 0.808 µM (active); in assay [5], 9.82 µM (active); in [9] it was 4.68 µM (active). Moreover, the IC50 at Large T antigen is 41.6 µM (active).

For `CN1c2ccccc2C(C)(C)C12CC(c1ccc(S(=O)(=O)N3CCCCC3)cc1)=NO2` (configuration not stated), in assay [10], the cytotoxic concentration (CC50) was 6.73 µM (active). The values for the IC50 in the assay with Vero and in “cells” were 4.14 µM (active) and 12 µM (active), respectively.

For `OC1(c2ccc(F)cc2)CCN(Cc2nnnn2Cc2cccs2)CC1`, at Prothrombin, the half-maximal inhibitory concentration (IC50) is > 50 µM (not active).

For the compound `CN(C)c1nc(N/N=C\c2ccc(Cl)c([N+](=O)[O-])c2)nc(Nc2ccc(F)cc2)n1`, the IC50 against Estrogen receptor is > 50 µM (not active).

Take `c1csc(-c2nc3c4ccccc4c4ccccc4c3[nH]2)c1`: in “cells”, the IC50 was 5.21 µM (active).

On to `COc1ccc(C(=O)CSc2cc(C)nc3nc(C)nn23)cc1OC`, for which the EC50 in assay [4] and in assay [5] was > 20 µM (not active) in each case.

For the compound `COc1ccccc1NC(=O)Nc1nc(C(C)(C)C)cs1`, the CC50 in [10] is > 50 µM (active). Further, the IC50 in [11] was > 20 µM (inactive); in the assay “cells” it was 30.3 µM (active).

`CCCCOC(=O)n1ccc(C(=O)Nc2ccccc2OC)n1`: the IC50 on Prothrombin is 13.8 µM (active).

In the case of `Nc1nc(-c2ccco2)nn1C(=O)c1ccccc1`, the IC50 on Prothrombin is 0.926 µM (active).

Turning to `CCN(CC)CCn1c(NC(=O)c2ccccc2O)nc2ccccc21`, the IC50 at Beta-galactosidase is > 66.6 µM (inactive).

Consider `O=C(CSc1nc2ccsc2c(=O)n1Cc1ccc(C(=O)O)cc1)NCC1CCCO1` (configuration not stated), for which the IC50 was > 20 µM (inactive) on Bcl-2-related protein A1 and 17.5 µM (active) in assay [11].

Consider `CCOC(=O)c1sc2nc(CC(=O)OC)nc(NCc3ccco3)c2c1C`, for which the half-maximal effective concentration (EC50) in assay [12] was 63.7 µM (active). The CC50 in [13] was 32.7 µM (active).

For the compound `C[C@@H]1CCCCO[C@@H](CN(C)Cc2ccc(C(F)(F)F)cc2)[C@H](C)CN([C@H](C)CO)C(=O)c2cc(NS(=O)(=O)c3ccc(F)cc3)ccc2O1`, the AC50 at Paired box protein Pax-8 is 5.08 µM (active); in assay [3] it was 25.2 µM (active); in [1] it was 40 µM (active); in [2], 40.3 µM (active).
